The values below come from US20240425529A1, “BORIC ACID DERIVATIVE” (SHOUYAO HOLDINGS (BEIJING) CO., LTD., priority 2021, published 2024).

Experiment [1] deals with T1, LMP7 (Homo sapiens, UniProt P28062).
T1 construct: using MOLT-4 cell lysate as the enzyme source of LMP7; endogenous in cells; host or cells: MOLT-4 (human acute lymphoblastic leukemia cells)
Briefly: Enzymatic inhibitory activity on LMP7 (MOLT-4 cell lysate, Ac-ANW-AMC substrate). Particulars: 1 hour pre-incubation. The class given is biochemical. An outline of the steps: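 Enzyme source was MOLT-4 cell lysate (20 ng/μl final) in 20 mM Tris pH 8.0, 0.5 mM EDTA, preincubated 1 h at 23 °C with compound at 9 final concentrations (0–2000 nM). Ac-ANW-AMC ([…]) was then added, 2 h at 23 °C in the dark. AMC fluorescence (ex 345/em 445 nm) gave the IC50.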

For experiment [2], the target named is T1, LMP7. In words: Cytological inhibitory activity on LMP7 in MOLT-4 cells. The class given is cell-based. The note with it: incubation for 2 hours with compound, read-out: Cytological activity data LMP7 Activity (MOLT-4Cell). An outline of the steps: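 MOLT-4 cells pre-incubated 2 h with compound (8 concentrations, 5-fold dilution series from 2 mM DMSO stock, 5% FBS), washed and lysed. Lysate (20 ng/μl, 2× stock) reacted with Ac-ANW-AMC (100 μM, 2× stock) in 20 mM Tris pH 8.0, 0.5 mM EDTA, 1 h, 23 °C. Fluorescence at 345/445 nm; IC50 fitted.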

`O=C(Nc1ccccn1)C(=O)N[C@@H](Cc1coc2ccccc12)B(O)O` [Ex. 12]: the results for the IC50 at LMP7 [1] and at LMP7 [2] were 9.64 nM and 3.77 nM, respectively.

On to `O=C1COB([C@H](Cc2coc3ccccc23)NC(=O)C(=O)Nc2cnccn2)O1` [Ex. 73], for which the IC50 stood at 1.23 nM against LMP7 [1] and 1.15 nM at LMP7 [2].

As for `Cc1cnc(NC(=O)C(=O)N[C@@H](Cc2coc3ccccc23)B(O)O)s1` [Ex. 32, (R)-(2-(benzofuran-3-yl)-1-(2-oxo-2-((5-methylthiazol-2-yl)amino)acetamido)ethyl)boronic acid], the figures for the IC50 at LMP7 [1] and on LMP7 [2] were 4.6 nM and 1.72 nM, respectively.

`CC1CC(C)(C)OB([C@H](Cc2coc3ccccc23)NC(=O)C(=O)Nc2cnccn2)O1` (some centres unmarked) [Ex. 67]: the IC50 at LMP7 [1] amounted to 1.59 nM; at LMP7 [2], 0.79 nM.

As for `O=C(Nc1nc2ccccc2s1)C(=O)N[C@@H](Cc1coc2ccccc12)B(O)O` [Ex. 27, (R)-(2-(benzofuran-3-yl)-1-(2-oxo-2-((benzo[d]thiazol-2-yl)amino)acetamido)ethyl)boronic acid], the IC50 against LMP7 [1] turned out to be 3.53 nM; on LMP7 [2], 1.58 nM.

For the compound `O=C(Nc1cc(Cl)ccn1)C(=O)N[C@@H](Cc1coc2ccccc12)B(O)O` [Ex. 49, (R)-(2-(benzofuran-3-yl)-1-(2-oxo-2-((4-chloropyridin-2-yl)amino)acetamido)ethyl)boronic acid], the figures for the IC50 against LMP7 [1] and at LMP7 [2] were 1.51 nM and 1.9 nM, respectively.

As for `O=C(Nc1cnccn1)C(=O)N[C@@H](Cc1coc2ccccc12)B(O)O` [Ex. 9, (R)-(2-(benzofuran-3-yl)-1-(2-oxo-2-(pyrazin-2-ylamino)acetamido)ethyl) boronic acid], the IC50 against LMP7 [1] amounted to 9.02 nM; on LMP7 [2], 4.82 nM.
